{"source": "patent US20240398727A1", "about": "“(S)-5-(1-(3,5-BIS(TRIFLUOROMETHYL)PHENOXY)ETHYL)CYCLOHEXANE-1,3-DIONE (NU-9) IMPROVES THE HEALTH OF DISEASED UPPER MOTOR NEURONS” (Northwestern University, priority 2021, published 2024)", "key": {"[1]": {"test_system": "UMNs of hSOD1^G93A-UeGFP mice", "test": "Axon outgrowth of UMNs diseased by mSOD1 toxicity in dissociated motor cortex culture", "type": "cell-based, mouse", "details": "3 days in vitro; for average length of UMN axons: SFM control 227.62±19.63 μm, WT 321.41±17.54 μm", "description": "(§1) Mice. All animal procedures were approved by the Northwestern University Animal Care and Use committee and comply with the standards of the National Institutes of Health. All mice were on C57BL/6 background. Transgenic hemizygous males expressing a high copy number of the human SOD1 gene with a G93A mutation (B6SJL-Tg (SOD1*G93A)1Gur/J; The Jackson Laboratory) were bred to hemizygous UCHL1-eGFP females to generate hSOD1^G93A-UeGFP and WT-UeGFP (control) mice. UCHL1-eGFP mice were generated in the Ozdinler Lab; they are reporter lines for UMNs (Yasvoina, Genc et al. 2013), and are now available at Jackson Laboratory (stock no. 022476). Hemizygous UCHL1-eGFP females were bred to hemizygous prpTDP-43^A315T mice (procured from Jackson Laboratory, stock no. 010700) to generate prpTDP-43^A315T-UeGFP mice. prpTDP-43^A315T mice were supplied with gel diet (DietGel 76A, ClearH2O, ME, USA) to eliminate gastrointestinal (GI) complications. Transgenic mice were identified by PCR amplification of DNA extracted from their tail, as previously described (Gurney, Pu et al. 1994, Wegorzewska, Bell et al. 2009, Yasvoina, Genc et al. 2013, Gautam, Jara et al. 2019). Mice with different genotypes are abbreviated in the figures as follows: WT-UeGFP (control) mice=G mice; hSOD1^G93A-UeGFP mice=GS mice; prpTDP-43^A315T-UeGFP mice=GTDP mice.\n(§2) Compound preparation and delivery. NU-9 was prepared as 100 μM stock in dimethylsulfoxide (DMSO) and added to serum free medium (SFM) at a final concentration of 400 nM (4 μl per 1 ml SFM). […] Edaravone (Sigma-Aldrich) was prepared as 1 mM stock in DMSO and added at a final concentration of 1 μM in SFM (1 μl per 1 ml SFM). Amylyx AMX-0035 compound was a combination of 1 mM of 4-Phenylbutyric acid (4-PBA, Sigma Aldrich)+100 μM Tauroursodeoxycholic Acid, Sodium Salt (TUDCA, Millipore Sigma) added into SFM (4-PBA was prepared as a 21.5 mM stock in water and added at 46.5 μl per 1 ml SFM, TUDCA was prepared as 20 mM stock in water, and added at 5 μl per 1 ml SFM).\n(§3) UMN Cultures. P3 motor cortices isolated from WT-UeGFP, hSOD1^G93A-UeGFP, and prpTDP-43^A315T-UeGFP mice were dissected, dissociated, and cultured on glass coverslips (4×10^4 cells per 18 mm diameter coverslip, Fisherbrand) coated with poly-L-lysine (10 mg/mL, Sigma) as previously described (Ozdinler and Macklis 2006). […]\n(§4) UMNs were quantitatively analyzed for differences in neurite length and arborization complexity. Images taken with a 20× objective on the epifluorescent microscope (Nikon) were analyzed using the Neurite Tracer plugin from FIJI (NIH), which enables semi-autonomous tracing to measure the length of the axon. […]"}, "[2]": {"test_system": "UMNs from prpTDP-43^A315T-UeGFP mice", "type": "cell-based", "details": "prpTDP-43^A315T-UeGFP UMNs, 3 days in vitro; for average length of the axons of UMNs: SFM control 199.52±21.15 μm, WT 321.41±17.54 μm", "description": "as §1, §2, §3, §4"}, "[3]": {"test_system": "UMNs of hSOD1^G93A-UeGFP mice", "test": "Sholl analysis of arborization and branching, UMNs diseased by mSOD1 toxicity", "type": "cell-based, mouse", "details": "3 days in culture, data not shown", "procedure": "(§5) UMN Cultures. P3 motor cortices isolated from WT-UeGFP, hSOD1^G93A-UeGFP, and prpTDP-43^A315T-UeGFP mice were dissected, dissociated, and cultured on glass coverslips (4×10^4 cells per 18 mm diameter coverslip, Fisherbrand) coated with poly-L-lysine (10 mg/mL, Sigma) as previously described (Ozdinler and Macklis 2006). Neurons were cultured in SFM [0.034 mg/L BSA, 1 mM L-glutamine, 25 U/mL penicillin, 0.025 mg/mL streptomycin, 35 mM glucose, and 0.5% B27 in Neurobasal-A medium (Life Technologies)] in a humidified tissue culture incubator in the presence of 5% CO2 at 37° C. […] Cultures were fixed after 3 days in vitro (DIV).\n(§6) UMNs were quantitatively analyzed for differences in neurite length and arborization complexity. Images taken with a 20× objective on the epifluorescent microscope (Nikon) were analyzed using the Neurite Tracer plugin from FIJI (NIH), which enables semi-autonomous tracing to measure the length of the axon. The aggregation of the neurite tracings centered at the soma generates a profile available for Sholl analysis."}, "[4]": {"test_system": "UMNs from prpTDP-43^A315T-UeGFP mice", "test": "Sholl analysis of arborization and branching, UMNs with TDP-43 pathology", "type": "cell-based, mouse", "details": "prpTDP-43^A315T-UeGFP UMNs; data not shown", "procedure": "as §5, §6\nStatistical analysis. All analyses were performed using Prism software (GraphPad Software). The D'Agostino and Pearson normality test was performed on all datasets. Statistical differences between more than two groups were determined by one-way ANOVA followed by the Tukey's post-hoc multiple-comparison test. […]"}, "male BALB/c mice": {"test_system": "male BALB/c mice", "details": "mouse, in vivo, po, 100 mg/kg/day", "quoted_text": "Repeated dose toxicity study was performed at Laboratory Animal House (LAH), Toxicology, Sai Life Science Ltd., Chrysalis Enclave, Phase II, Hinjewadi, Pune-411 057, Maharashtra, India."}, "[5]": {"details": "male, BALB/c, mouse, in vivo, po"}, "in vivo": {"test": "in vivo", "details": "BALB/c, mouse, 100 mg/kg/day"}, "[6]": {"test": "Plasma, brain and CNS concentrations after repeated oral dosing", "details": "mice, 100 mg/kg/day via daily gavage"}, "[7]": {"details": "literature value; cited from earlier work"}, "[8]": {"test_system": "misfolded SOD1 (mSOD1) mouse model", "details": "literature (Snow 2003, Scott 2008); cited from earlier work"}, "[9]": {"details": "NU-9 400 nM, riluzole 500 nM, edaravone 1 μM"}, "[10]": {"details": "riluzole 500 nM, edaravone 1 μM"}}}
{"smiles": "C[C@H](Oc1cc(C(F)(F)F)cc(C(F)(F)F)c1)C1CC(=O)CC(=O)C1", "note": "[NU-9, (S)-5-(1-(3,5-bis(trifluoromethyl)phenoxy)ethyl)cyclohexane-1,3-dione]", "values": [{"measurement": "percent of UMNs with an axon within the range of 300-399 μm", "setting": "[1]; NU-9 400 nM", "value": "about 44.4%"}, {"measurement": "average length of UMN axons", "setting": "[1]; [9]", "value": "346.76±12.32", "unit": "μm"}, {"measurement": "percentage of UMNs with axons longer than 300 μm", "setting": "[2]; NU-9 400 nM, vehicle 26%", "value": 88, "unit": "%"}, {"measurement": "average length of the axons of UMNs", "setting": "[2]; [9]", "value": "397.73±14.09", "unit": "μm"}, {"measurement": "UMN arborization (Sholl measurements)", "setting": "[3]", "value": "more complex and arborized UMNs"}, {"measurement": "neuronal arborization and branching (Sholl analyses)", "setting": "[4]", "value": "enhanced neuronal arborization and branching"}, {"measurement": "mortality", "setting": "male BALB/c mice", "value": "did not result in mortality"}, {"measurement": "time till which plasma concentrations were quantifiable", "setting": "[5]", "value": "up to 24 h"}, {"measurement": "time up to which brain concentrations were quantifiable", "setting": "[5]", "value": "up to 24 h"}, {"measurement": "concentration at 7 day", "setting": "in vivo; CNS, oral", "value": 400, "unit": "nM"}, {"measurement": "Tmax", "setting": "in vivo; male, plasma, po", "value": 30, "unit": "min"}, {"measurement": "dose (concentration) detected in CNS", "setting": "[6]", "value": 400, "unit": "nM"}]}
{"smiles": "CC1=NN(c2ccccc2)C(=O)C1", "note": "[edaravone, 2,4-Dihydro-5-methyl-2-phenyl-3H-pyrazol-3-one, reference compound]", "values": [{"measurement": "average length of UMN axons", "setting": "[1]; [9]", "value": "289.58±22.71", "unit": "μm"}, {"measurement": "overall axon outgrowth (distribution of longest axons)", "setting": "[1]; [10]", "value": "improved overall axon outgrowth"}, {"measurement": "average length of the axons of UMNs", "setting": "[2]; [9]", "value": "282.57±32.39", "unit": "μm"}, {"measurement": "percentage of UMNs with axons in the range of 200-399 μm", "setting": "[2]; [10]", "value": 62, "unit": "%"}, {"measurement": "UMN arborization (Sholl measurements)", "setting": "[3]", "value": "improved UMN arborization, but to a lesser extent"}, {"measurement": "concentration reported to be present in the CNS after the optimum dose used in clinical trials", "setting": "[7]", "value": 1000, "unit": "nM"}]}
{"smiles": "Nc1nc2ccc(OC(F)(F)F)cc2s1", "note": "[riluzole, 2-Amino-6-(trifluoromethoxy)benzothiazole]", "values": [{"measurement": "longevity of the mSOD1 mouse model", "setting": "[8]", "value": "failed to improve the longevity"}]}
